In publication PMC7032066 (Insect biochemistry and molecular biology, 2019):
pKd: −log10 of the molar value. Starred links: 1 amine or outer side, 2 acyl side, 3 side chain; linkers in the order of their positions; H or OH if unused. Non-standard residues stand in square brackets, D forms with d. Residues, ends and D or L forms follow the SMILES beside them. Mur = C[C@@H](O[C@H]1[C@H](O)[C@@H](CO)OC(O)[C@@H]1N[*:1])C(=O)[*:2]; d(isoGln) = NC(=O)[C@@H](CCC(=O)[*:2])N[*:1]

Target: T1, M. sexta PGRP1 (Manduca sexta, UniProt Q86RS6)
T1 sequence (Q86RS6 20-191): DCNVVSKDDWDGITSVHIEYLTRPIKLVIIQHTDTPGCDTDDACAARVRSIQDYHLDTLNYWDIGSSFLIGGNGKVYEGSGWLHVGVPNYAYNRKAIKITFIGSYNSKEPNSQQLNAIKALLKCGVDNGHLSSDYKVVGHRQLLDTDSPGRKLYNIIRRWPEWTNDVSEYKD
Assay: SPR
Assay type: binding
Details: HBS-EP pH 7.4 (10 mM HEPES, 150 mM NaCl, 3 mM EDTA, 0.005% polysorbate 20), 25°C

pKd: 4.34
SMILES: CC(=O)N[C@H]1C(O)O[C@H](CO)[C@@H](O)[C@@H]1O[C@H](C)C(=O)N[C@@H](C)C(=O)N[C@H](CCC(=O)N[C@@H](CCCCN)C(=O)N[C@H](C)C(=O)N[C@H](C)C(N)=O)C(N)=O (stereo partly shown) [Lys-MPP] (Ac-[Mur]A[d(isoGln)]K[dA][dA]-NH2)
